As a reminder, the AC50 is the concentration at which the activity in the assay is half-maximal.

In the assay the test system is TFEB. As to the kind of experiment: TFEB nuclear translocation assay, HeLa wt cells. Type of assay: cell-based. The note with it: Homo sapiens, HeLa, 2 h, 2 hrs compound treatment, Table 1 does not say HeLa wt or TRPML1 KO. The procedure, abridged:
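Read-out is the ratio of TFEB immunofluorescence in the nucleus to that in a ring just outside it, measured by automated imaging. HeLa wt cells received compounds for 2 hrs at 37° C before fixation and staining; AC50 values come from this ratio.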
Compound `CC(c1ccccc1N1CCC2(CC1)COC(C)(C)C2)S(=O)(=O)Cc1ccccc1` (centres unmarked) [Compound A-751, 3,3-dimethyl-8-[2-(1-phenylmethanesulfonylethyl)phenyl]-2-oxa-8-azaspiro[4.5]decane] gave an AC50 not below 10000 nM. The compound `CC(c1cccc(F)c1N1CCC2(CC1)COC(C)(C)C2)S(=O)(=O)c1ccc(S(=O)(=O)N(C)C)cc1` (centres unmarked) [Compound A-752, 4-[1-(2-{3,3-dimethyl-2-oxa-8-azaspiro[4.5]decan-8-yl}-3-fluorophenyl)ethanesulfonyl]-N,N-dimethylbenzene-1-sulfonamide] displayed an AC50 not above 2000 nM.

`CN(C)S(=O)(=O)c1ccc(S(=O)(=O)Nc2cccc(C(F)F)c2N2CCC3(CC2)COC(C)(C)C3)cc1` [Compound A-753, N4-[3-(difluoromethyl)-2-{3,3-dimethyl-2-oxa-8-azaspiro[4.5]decan-8-yl}phenyl]-N1,N1-dimethylbenzene-1,4-disulfonamide] registered an AC50 not above 2000 nM.

Regarding `C[C@@H]1CN(C(=O)C2CCN(c3ccccc3NS(=O)(=O)c3ccc(S(=O)(=O)N(C)C)cc3)CC2)C[C@H](C)O1` [Compound A-754, N4-(2-{4-[(2R,6S)-2,6-dimethylmorpholine-4-carbonyl]piperidin-1-yl}phenyl)-N1,N1-dimethylbenzene-1,4-disulfonamide], the AC50 is 2010 to 8000 nM. In the case of `C[C@@H]1CN(CC2CCN(c3c(F)cccc3NS(=O)(=O)c3ccc(S(=O)(=O)N(C)C)cc3)CC2)C[C@H](C)O1` [Compound A-755, N4-[2-(4-{[(2R,6S)-2,6-dimethylmorpholin-4-yl]methyl}piperidin-1-yl)-3-fluorophenyl]-N1,N1-dimethylbenzene-1,4-disulfonamide], the AC50 was not above 2000 nM. Consider `Cc1nc(C)c(S(=O)(=O)Nc2ccccc2N2CCC(CN3C[C@@H](C)O[C@@H](C)C3)CC2)s1` [Compound A-756, N-[2-(4-{[(2R,6S)-2,6-dimethylmorpholin-4-yl]methyl}piperidin-1-yl)phenyl]-2,4-dimethyl-1,3-thiazole-5-sulfonamide], for which the AC50 is 2010 to 8000 nM. As for `Cc1ccc(N2CCOCC2)c(NS(=O)(=O)c2ccc(S(=O)(=O)N(C)C)cc2)c1` [Compound A-757, N1,N1-dimethyl-N4-[5-methyl-2-(morpholin-4-yl)phenyl]benzene-1,4-disulfonamide], the figure is not above 2000 nM; as for `C[C@@H]1CN(CC2CCN(c3c(F)cccc3NS(=O)(=O)c3ccc(S(=O)(=O)C(F)F)cc3)CC2)C[C@H](C)O1` [Compound A-758, 4-difluoromethanesulfonyl-N-[2-(4-{[(2R,6S)-2,6-dimethylmorpholin-4-yl]methyl}piperidin-1-yl)-3-fluorophenyl]benzene-1-sulfonamide], not above 2000 nM.

As for `C[C@@H]1CN(CC2CCN(c3c(F)cccc3NS(=O)(=O)c3ccc4c(c3)CCC4)CC2)C[C@H](C)O1` [Compound A-759, N-[2-(4-{[(2R,6S)-2,6-dimethylmorpholin-4-yl]methyl}piperidin-1-yl)-3-fluorophenyl]-2,3-dihydro-1H-indene-5-sulfonamide], the AC50 was not above 2000 nM.

`O=S(=O)(Nc1ccccc1N1CCOCC1)c1ccc2c(c1)CCC2` [Compound A-760, N-[2-(morpholin-4-yl)phenyl]-2,3-dihydro-1H-indene-5-sulfonamide] registered an AC50 of 2010 to 8000 nM. The compound `CN(C)S(=O)(=O)c1ccc(S(=O)(=O)Nc2ccccc2N2CCC(C(=O)N3CCOCC3)CC2)cc1` [Compound A-761, N1,N1-dimethyl-N4-{2-[4-(morpholine-4-carbonyl)piperidin-1-yl]phenyl}benzene-1,4-disulfonamide] came in with an AC50 not below 10000 nM. `CN(C)S(=O)(=O)c1ccc(S(=O)(=O)Nc2cccc(F)c2N2CCC(CN3CC4CCC(C3)O4)CC2)cc1` [Compound A-762, N4-{3-fluoro-2-[4-({8-oxa-3-azabicyclo[3.2.1]octan-3-yl}methyl)piperidin-1-yl]phenyl}-N1,N1-dimethylbenzene-1,4-disulfonamide] yielded an AC50 not above 2000 nM. The value for `CN1CC2(CCN(c3c(F)cccc3NS(=O)(=O)c3ccc(S(=O)(=O)N(C)C)cc3)CC2)OC1=O` [Compound A-764, N4-(3-fluoro-2-{3-methyl-2-oxo-1-oxa-3,8-diazaspiro[4.5]decan-8-yl}phenyl)-N1,N1-dimethylbenzene-1,4-disulfonamide] was 2010 to 8000 nM; that for `C[C@@H]1CN(CC2CCN(c3c(F)cccc3NS(=O)(=O)c3ccc(S(=O)(=O)N4CCC4)cc3)CC2)C[C@H](C)O1` [Compound A-765, 4-(azetidine-1-sulfonyl)-N-[2-(4-{[(2R,6S)-2,6-dimethylmorpholin-4-yl]methyl}piperidin-1-yl)-3-fluorophenyl]benzene-1-sulfonamide] was not above 2000 nM; that for `C[C@@H]1CN(CC2CCN(c3c(F)cccc3NS(=O)(=O)c3ccc(C(F)F)cc3)CC2)C[C@H](C)O1` [Compound A-766, 4-(difluoromethyl)-N-[2-(4-{[(2R,6S)-2,6-dimethylmorpholin-4-yl]methyl}piperidin-1-yl)-3-fluorophenyl]benzene-1-sulfonamide] was not above 2000 nM. The compound `C[C@@H]1CN(CC2CCN(c3c(F)cccc3NS(=O)(=O)C3(c4ccccc4)CC3)CC2)C[C@H](C)O1` [Compound A-767, N-[2-(4-{[(2R,6S)-2,6-dimethylmorpholin-4-yl]methyl}piperidin-1-yl)-3-fluorophenyl]-1-phenylcyclopropane-1-sulfonamide] registered an AC50 not above 2000 nM.

Turning to `Cc1nc(C2CC2)sc1S(=O)(=O)Nc1ccccc1N1CCC(CN2C[C@@H](C)O[C@@H](C)C2)CC1` [Compound A-768, 2-cyclopropyl-N-[2-(4-{[(2R,6S)-2,6-dimethylmorpholin-4-yl]methyl}piperidin-1-yl)phenyl]-4-methyl-1,3-thiazole-5-sulfonamide], the AC50 is not above 2000 nM.

Compound `C[C@@H]1CN(CC2CCN(c3c(F)cccc3NS(=O)(=O)c3ccc(S(=N)(=O)N(C)C)cc3)CC2)C[C@H](C)O1` (stereo partly drawn) [Compound A-769, N-(2-(4-(((2S,6R)-2,6-dimethylmorpholino)methyl)piperidin-1-yl)-3-fluorophenyl)-4-(N,N-dimethylsulfamimidoyl)benzene-sulfonamide] came in with an AC50 not above 2000 nM. The value for `CN(C)S(=O)(=O)c1ccc(S(=O)(=O)Nc2ccccc2N2CCOCC2)cc1` [Compound A-770, N1,N1-dimethyl-N4-[2-(morpholin-4-yl)phenyl]benzene-1,4-disulfonamide] was not below 10000 nM.

In turn, `Cc1ccc(S(=O)(=O)Nc2cccc(F)c2N2CCC(CN3C[C@@H](C)O[C@@H](C)C3)CC2)cc1` [Compound A-771, N-[2-(4-{[(2R,6S)-2,6-dimethylmorpholin-4-yl]methyl}piperidin-1-yl)-3-fluorophenyl]-4-methylbenzene-1-sulfonamide] returned a concentration at half-maximal activity (AC50) not above 2000 nM. As for `C[C@@H]1CN(CC2CCN(c3ccccc3NS(=O)(=O)c3cnn(CC4CC4)c3)CC2)C[C@H](C)O1` [Compound A-772, 1-(cyclopropylmethyl)-N-[2-(4-[(2R,6S)-2,6-dimethylmorpholin-4-yl]methylpiperidin-1-yl)phenyl]-1H-pyrazole-4-sulfonamide], the figure is 8010 to 9990 nM. Consider `CN(C)S(=O)(=O)c1ccc(S(=O)(=O)Nc2cccc(F)c2N2CCC(CN3CCCC(F)(F)C3)CC2)cc1` [Compound A-773, N4-(2-{4-[(3,3-difluoropiperidin-1-yl)methyl]piperidin-1-yl}-3-fluorophenyl)-N1,N1-dimethylbenzene-1,4-disulfonamide], for which the AC50 is not above 2000 nM. The value for `CN(C)S(=O)(=O)c1ccc(S(=O)(=O)Nc2cccc(F)c2N2CCC(CN3CCC(F)(F)C3)CC2)cc1` [Compound A-774, N4-(2-{4-[(3,3-difluoropyrrolidin-1-yl)methyl]piperidin-1-yl}-3-fluorophenyl)-N1,N1-dimethylbenzene-1,4-disulfonamide] was not above 2000 nM; that for `CC(c1cccnc1N1CCC2(CC1)COC(C)(C)C2)S(=O)(=O)c1ccc(S(=O)(=O)N(C)C)cc1` (centres unmarked) [Compound A-775, 4-[1-(2-{3,3-dimethyl-2-oxa-8-azaspiro[4.5]decan-8-yl}pyridin-3-yl)ethanesulfonyl]-N,N-dimethylbenzene-1-sulfonamide] was 8010 to 9990 nM; that for `C[C@@H]1CN(CC2CCN(c3c(F)cccc3NS(=O)(=O)c3ccc(S(C)(=O)=O)cc3)CC2)C[C@H](C)O1` [Compound A-776, N-[2-(4-{[(2R,6S)-2,6-dimethylmorpholin-4-yl]methyl}piperidin-1-yl)-3-fluorophenyl]-4-methanesulfonylbenzene-1-sulfonamide] was not above 2000 nM.

`COCC1(C(F)(F)F)CCN(c2ccccc2NS(=O)(=O)c2ccc(S(=O)(=O)N(C)C)cc2)CC1` [Compound A-777, N4-2-[4-(methoxymethyl)-4-(trifluoromethyl)piperidin-1-yl]phenyl-N1,N1-dimethylbenzene-1,4-disulfonamide] returned an AC50 not above 2000 nM.

Consider `CN(C)S(=O)(=O)c1ccc(S(=O)(=O)Nc2cccc(F)c2N2CCC(CN3C4COCC3C4)CC2)cc1` [Compound A-778, N4-3-fluoro-2-[4-(3-oxa-6-azabicyclo[3.1.1]heptan-6-ylmethyl)piperidin-1-yl]phenyl-N1,N1-dimethylbenzene-1,4-disulfonamide], for which the concentration at half-maximal activity (AC50) was not above 2000 nM. As for `CC(c1ccc(S(=O)(=O)Nc2ccccc2N2CCC(CN3C[C@@H](C)O[C@@H](C)C3)CC2)cc1)C1CC1` (stereo partly drawn) [Compound A-779, 4-(1-cyclopropylethyl)-N-[2-(4-{[(2R,6S)-2,6-dimethylmorpholin-4-yl]methyl}piperidin-1-yl)phenyl]benzene-1-sulfonamide], the figure is not above 2000 nM. With `C[C@@H]1CN(CC2CCN(c3c(F)cccc3NS(=O)(=O)c3ccc4c(c3)OC(C)(C)C4)CC2)C[C@H](C)O1` [Compound A-780, N-[2-(4-{[(2R,6S)-2,6-dimethylmorpholin-4-yl]methyl}piperidin-1-yl)-3-fluorophenyl]-2,2-dimethyl-2,3-dihydro-1-benzofuran-6-sulfonamide], the AC50 was not above 2000 nM.

Source of the values: patent publication US20230104936A1, “TRPML MODULATORS” (Casma Therapeutics, Inc., priority 2019, published 2023).
